Where two headings read alike, the source gives them in different places. Numbered stars: 1 amine (or outer) side, 2 acyl side, 3 side chain; on linkers, the order of the positions; unused ones are H or OH. Square brackets hold non-standard residues; d marks the D form. Side chains are listed from the residue outwards. Peptide text beside a SMILES is read from it. * marks the point of attachment. Phe(4-CH2NH2) = NCc1ccc(C[C@H](N)C(=O)O)cc1; C18 diacid = O=C(O)CCCCCCCCCCCCCCCCC(=O)*; αMeW = C[C@](N)(Cc1c[nH]c2ccccc12)C(=O)O; C16 diacid = O=C(O)CCCCCCCCCCCCCCC(=O)*; γGlu = O=C(O)[C@H](CCC(=O)[*:2])N[*:1]; Met(O2) = CS(=O)(=O)CC[C@H](N)C(=O)O; AEEA = NCCOCCOCC(=O)O; Aib = CC(C)(N)C(=O)O Some results are limits rather than exact numbers.

The target of one assay is T1, human GLP1R (Homo sapiens, UniProt P43220).
T1 construct: expressed in transfected cells; growth medium holds Blasticidin and Hygromycin
The assay is described as follows: cAMP activity assay at the GLP-1 receptor (GLP1R). Format: cell-based. How it is done: Activity of the peptides at the Glucagon receptor (GCGR) and GLP-1 receptor (GLP1R) was measured in a cAMP activity assay.
GCG/GLP-1 receptor co-agonist peptides were dissolved in 100% DMSO (dimethyl sulfoxide) and serially diluted to generate 10 point titrations. The peptide solutions were then transferred into 384-well assay plates (150 nL/well). Assay ready frozen cells expressing human GLP1R or human GCGR were suspended in growth media consisting of DMEM medium (GIBCO®), 10% FBS (GIBCO®), 1×NEAA(GIBCO®), 1×P/S (GIBCO®), 10 ug/mL Blasticidin (GIBCO®) and 200 μg/mL Hygromycin (GIBCO®). […] The cell suspensions (15 μL) were then added to the assay plates containing the peptide solutions (30,000 cells/well for human GCGR; 10,000 cells/well for human GLP1R). The cells were incubated for 1 hour at room temperature in the dark. Production of cAMP was determined using HitHunter™ cAMPXS kits (DiscoverX) following manufacturer protocol. The plates were incubated for overnight at room temperature in the dark. Luminescence was measured using an EnVision Multilabel plate reader (Perkin Elmer). Native GLP-1 and Glucagon (Bachem) are used as control peptides. EC50 values were calculated using uses a 4 parameter logistic fit based on the Levenberg-Marquardt algorithm.

The target in another assay is T2, human GCGR (Homo sapiens, UniProt P47871).
T2 construct: expressed in transfected cells; growth medium holds Blasticidin and Hygromycin
The assay is described as follows: cAMP activity assay at the Glucagon receptor (GCGR). Format: cell-based. The note with it: for hGCGR/hGLP1R (hTone): ratio of GCGR EC50 to GLP1R EC50. In outline:
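Peptides serially diluted from DMSO (10 points) and added to frozen-stock cells bearing human GLP1R (10,000 cells/well) or GCGR (30,000 cells/well), 1 h at RT, dark. EC50 by four-parameter logistic fit of HitHunter cAMPXS luminescence, read following overnight RT incubation.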

[1] abbreviates: summary statement: EC50 at each of the glucagon and GLP-1 receptors, read-out: EC50 at the GLP-1 receptor.
Where [2] appears, read: cells expressing human GCGR, cAMP production, buffer with or without 20% human serum (not stated which), read-out: GCGR EC50 human.
Setting [3] is: summary statement: EC50 at each of the glucagon and GLP-1 receptors, read-out: EC50 at the glucagon receptor.
The mark [4] stands for this setting: cells expressing human GLP1R, cAMP production, buffer with or without 20% human serum (not stated which), read-out: GLP1R EC50 human.

T2 sequence (P47871 26-477): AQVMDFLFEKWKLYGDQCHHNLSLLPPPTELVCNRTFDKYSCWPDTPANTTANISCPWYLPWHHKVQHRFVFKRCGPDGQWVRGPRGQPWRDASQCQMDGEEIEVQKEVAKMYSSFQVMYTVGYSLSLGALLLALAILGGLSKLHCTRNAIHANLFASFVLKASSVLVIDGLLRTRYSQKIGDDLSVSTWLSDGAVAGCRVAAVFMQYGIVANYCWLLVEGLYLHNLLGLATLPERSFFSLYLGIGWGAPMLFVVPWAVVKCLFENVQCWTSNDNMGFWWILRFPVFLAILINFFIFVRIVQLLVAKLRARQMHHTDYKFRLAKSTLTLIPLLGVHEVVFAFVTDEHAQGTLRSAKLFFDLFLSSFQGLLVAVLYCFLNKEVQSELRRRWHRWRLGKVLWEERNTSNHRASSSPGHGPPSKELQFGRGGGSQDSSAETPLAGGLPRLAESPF
T1 sequence (P43220 24-463): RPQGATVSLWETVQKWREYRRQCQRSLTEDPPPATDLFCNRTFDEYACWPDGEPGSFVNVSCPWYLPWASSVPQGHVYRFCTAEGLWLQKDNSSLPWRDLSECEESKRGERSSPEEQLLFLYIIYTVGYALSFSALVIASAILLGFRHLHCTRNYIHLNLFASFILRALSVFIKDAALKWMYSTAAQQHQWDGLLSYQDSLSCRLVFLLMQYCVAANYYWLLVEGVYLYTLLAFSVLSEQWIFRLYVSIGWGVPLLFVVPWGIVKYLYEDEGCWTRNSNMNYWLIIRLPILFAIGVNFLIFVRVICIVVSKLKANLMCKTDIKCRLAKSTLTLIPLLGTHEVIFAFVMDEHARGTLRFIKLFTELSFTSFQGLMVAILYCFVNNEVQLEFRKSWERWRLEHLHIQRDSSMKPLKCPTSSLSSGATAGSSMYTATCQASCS

As to `CC(C)C[C@H](NC(=O)[C@H](Cc1ccc(O)cc1)NC(=O)[C@H](CCCCN)NC(=O)[C@H](CO)NC(=O)[C@H](Cc1ccc(O)cc1)NC(=O)[C@H](CC(=O)O)NC(=O)[C@H](CO)NC(=O)[C@@H](NC(=O)[C@H](Cc1ccccc1)NC(=O)[C@@H](NC(=O)CNC(=O)[C@H](CCC(N)=O)NC(=O)C(C)(C)NC(=O)[C@@H](N)Cc1c[nH]cn1)[C@@H](C)O)[C@@H](C)O)C(=O)N[C@@H](CC(=O)O)C(=O)N[C@@H](C)C(=O)N[C@@H](CCCNC(=N)N)C(=O)N[C@@H](C)C(=O)N[C@@H](C)C(=O)N[C@@H](CCC(N)=O)C(=O)N[C@@H](CCC(=O)O)C(=O)N[C@@H](Cc1ccccc1)C(=O)N[C@H](C(=O)N[C@@H](CCCCNC(=O)COCCOCCNC(=O)COCCOCCNC(=O)CC[C@H](NC(=O)CCCCCCCCCCCCCCC(=O)O)C(=O)O)C(=O)N[C@@H](Cc1c[nH]c2ccccc12)C(=O)N[C@@H](CC(C)C)C(=O)N[C@@H](CCS(C)(=O)=O)C(=O)N[C@@H](CC(=O)O)C(=O)N[C@H](C(N)=O)[C@@H](C)O)C(C)C` [TP813] (H-H[Aib]QGTFTSDYSKYLDARAAQEFVK([AEEA-AEEA-γGlu-C16 diacid])WL[Met(O2)]DT-NH2; N-terminus assumed), the EC50 at human GLP1R (setting [1]) was < 5 nM; on human GCGR (setting [2]), 0.21 nM; at human GCGR (setting [3]), < 5 nM. In addition, on human GCGR, the “hGCGR/hGLP1R (hTone)” value is reported as 1.6.

Take `CC(C)C[C@H](NC(=O)[C@H](Cc1ccc(O)cc1)NC(=O)[C@H](CCCCN)NC(=O)[C@H](CO)NC(=O)[C@H](Cc1ccc(O)cc1)NC(=O)[C@H](CC(=O)O)NC(=O)[C@H](CO)NC(=O)[C@@H](NC(=O)[C@H](Cc1ccccc1)NC(=O)[C@@H](NC(=O)CNC(=O)[C@H](CCC(N)=O)NC(=O)C(C)(C)NC(=O)[C@@H](N)Cc1c[nH]cn1)[C@@H](C)O)[C@@H](C)O)C(=O)N[C@@H](CC(=O)O)C(=O)N[C@@H](C)C(=O)N[C@@H](CCCNC(=N)N)C(=O)N[C@@H](C)C(=O)N[C@@H](C)C(=O)N[C@@H](CCCCNC(=O)COCCOCCNC(=O)COCCOCCNC(=O)CC[C@H](NC(=O)CCCCCCCCCCCCCCCCC(=O)O)C(=O)O)C(=O)N[C@@H](CC(=O)O)C(=O)N[C@@H](Cc1ccccc1)C(=O)N[C@H](C(=O)N[C@@H](CCC(N)=O)C(=O)N[C@@](C)(Cc1c[nH]c2ccccc12)C(=O)N[C@@H](CC(C)C)C(=O)N[C@@H](CCS(C)(=O)=O)C(=O)N[C@@H](CC(=O)O)C(=O)N[C@H](C(N)=O)[C@@H](C)O)C(C)C` [TP631] (H-H[Aib]QGTFTSDYSKYLDARAAK([AEEA-AEEA-γGlu-C18 diacid])DFVQ[αMeW]L[Met(O2)]DT-NH2; N-terminus assumed): the EC50 on human GLP1R (setting [1]) and on human GCGR (setting [3]) was < 5 nM each time. Further, the “hGCGR/hGLP1R (hTone)” value on human GCGR is 1.3.

For `CC(C)C[C@H](NC(=O)[C@H](Cc1ccc(O)cc1)NC(=O)[C@H](CCCCN)NC(=O)[C@H](CO)NC(=O)[C@H](Cc1ccc(O)cc1)NC(=O)[C@H](CC(=O)O)NC(=O)[C@H](CO)NC(=O)[C@@H](NC(=O)[C@H](Cc1ccccc1)NC(=O)[C@@H](NC(=O)CNC(=O)[C@H](CCC(N)=O)NC(=O)C(C)(C)NC(=O)[C@@H](N)Cc1c[nH]cn1)[C@@H](C)O)[C@@H](C)O)C(=O)N[C@@H](CC(=O)O)C(=O)N[C@@H](CCC(=O)O)C(=O)N[C@@H](CCCNC(=N)N)C(=O)N[C@@H](C)C(=O)N[C@@H](C)C(=O)N[C@@H](CCCCN)C(=O)N[C@@H](CC(=O)O)C(=O)N[C@@H](Cc1ccccc1)C(=O)N[C@H](C(=O)N[C@@H](CCCCNC(=O)COCCOCCNC(=O)COCCOCCNC(=O)CC[C@H](NC(=O)CCCCCCCCCCCCCCCCC(=O)O)C(=O)O)C(=O)N[C@@H](Cc1c[nH]c2ccccc12)C(=O)N[C@@H](CC(C)C)C(=O)N[C@@H](CCS(C)(=O)=O)C(=O)N[C@@H](CC(=O)O)C(=O)N[C@H](C(N)=O)[C@@H](C)O)C(C)C` [TP701] (H-H[Aib]QGTFTSDYSKYLDERAAKDFVK([AEEA-AEEA-γGlu-C18 diacid])WL[Met(O2)]DT-NH2), the results for the EC50 at human GLP1R (setting [4]) and on human GCGR (setting [2]) were 0.18 nM and > 4.9 nM, respectively.

Regarding `CC(C)C[C@H](NC(=O)[C@H](Cc1ccc(O)cc1)NC(=O)[C@H](CCCCN)NC(=O)[C@H](CO)NC(=O)[C@H](Cc1ccc(O)cc1)NC(=O)[C@H](CC(=O)O)NC(=O)[C@H](CO)NC(=O)[C@@H](NC(=O)[C@H](Cc1ccccc1)NC(=O)[C@@H](NC(=O)CNC(=O)[C@H](CCC(N)=O)NC(=O)C(C)(C)NC(=O)[C@@H](N)Cc1c[nH]cn1)[C@@H](C)O)[C@@H](C)O)C(=O)N[C@@H](CC(=O)O)C(=O)N[C@@H](C)C(=O)N[C@@H](CCCNC(=N)N)C(=O)N[C@@H](C)C(=O)N[C@@H](C)C(=O)N[C@@H](CCCCNC(=O)COCCOCCNC(=O)COCCOCCNC(=O)CC[C@H](NC(=O)CCCCCCCCCCCCCCC(=O)O)C(=O)O)C(=O)N[C@@H](CC(=O)O)C(=O)N[C@@H](Cc1ccccc1)C(=O)N[C@H](C(=O)N[C@@H](CCC(N)=O)C(=O)N[C@@H](Cc1c[nH]c2ccccc12)C(=O)N[C@@H](CC(C)C)C(=O)N[C@@H](CCS(C)(=O)=O)C(=O)N[C@@H](CCC(=O)N[C@H](C(N)=O)[C@@H](C)O)C(=O)O)C(C)C` [TP826] (H-H[Aib]QGTFTSDYSKYLDARAAK([AEEA-AEEA-γGlu-C16 diacid])DFVQWL[Met(O2)][γGlu]T-NH2), the EC50 at human GLP1R (setting [1]) and at human GCGR (setting [3]) was < 5 nM each time. Also, the “hGCGR/hGLP1R (hTone)” value at human GCGR turned out to be 2.7.

With `CC(C)C[C@H](NC(=O)[C@H](Cc1ccc(O)cc1)NC(=O)[C@H](CCCCN)NC(=O)[C@H](CO)NC(=O)[C@H](Cc1ccc(O)cc1)NC(=O)[C@H](CC(=O)O)NC(=O)[C@H](CO)NC(=O)[C@@H](NC(=O)[C@H](Cc1ccccc1)NC(=O)[C@@H](NC(=O)CNC(=O)[C@H](CCC(N)=O)NC(=O)C(C)(C)NC(=O)[C@@H](N)Cc1c[nH]cn1)[C@@H](C)O)[C@@H](C)O)C(=O)N[C@@H](CC(=O)O)C(=O)N[C@@H](C)C(=O)N[C@@H](CCCNC(=N)N)C(=O)N[C@@H](C)C(=O)N[C@@H](C)C(=O)N[C@@H](CCC(N)=O)C(=O)N[C@@H](Cc1ccc(CNC(=O)COCCOCCNC(=O)COCCOCCNC(=O)COCCOCCNC(=O)CC[C@H](NC(=O)CCCCCCCCCCCCCCCCC(=O)O)C(=O)O)cc1)C(=O)N[C@@H](Cc1ccccc1)C(=O)N[C@H](C(=O)N[C@@H](CCC(N)=O)C(=O)N[C@@H](Cc1c[nH]c2ccccc12)C(=O)N[C@@H](CC(C)C)C(=O)N[C@@H](CC(C)C)C(=O)N[C@@H](CC(=O)O)C(=O)N[C@H](C(N)=O)[C@@H](C)O)C(C)C` [TP679] (H-H[Aib]QGTFTSDYSKYLDARAAQ[Phe(4-CH2NH2)]([AEEA-AEEA-AEEA-γGlu-C18 diacid])FVQWLLDT-NH2; N-terminus assumed), the EC50 at human GLP1R (setting [4]) was 0.18 nM; on human GLP1R (setting [1]), < 5 nM; at human GCGR (setting [3]), < 5 nM. The “hGCGR/hGLP1R (hTone)” value on human GCGR came out at 0.7.

Consider `CC(C)C[C@H](NC(=O)[C@H](Cc1ccc(O)cc1)NC(=O)[C@H](CCCCN)NC(=O)[C@H](CO)NC(=O)[C@H](Cc1ccc(O)cc1)NC(=O)[C@H](CC(=O)O)NC(=O)[C@H](CO)NC(=O)[C@@H](NC(=O)[C@H](Cc1ccccc1)NC(=O)[C@@H](NC(=O)CNC(=O)[C@H](CCC(N)=O)NC(=O)C(C)(C)NC(=O)[C@@H](N)Cc1c[nH]cn1)[C@@H](C)O)[C@@H](C)O)C(=O)N[C@@H](CC(=O)O)C(=O)N[C@@H](C)C(=O)N[C@@H](CCCNC(=N)N)C(=O)N[C@@H](C)C(=O)N[C@@H](C)C(=O)N[C@@H](Cc1ccc(CNC(=O)COCCOCCNC(=O)COCCOCCNC(=O)COCCOCCNC(=O)CC[C@H](NC(=O)CCCCCCCCCCCCCCCCC(=O)O)C(=O)O)cc1)C(=O)N[C@@H](CC(=O)O)C(=O)N[C@@H](Cc1ccccc1)C(=O)N[C@H](C(=O)N[C@@H](CCC(N)=O)C(=O)N[C@@H](Cc1c[nH]c2ccccc12)C(=O)N[C@@H](CC(C)C)C(=O)N[C@@H](CC(C)C)C(=O)N[C@@H](CC(=O)O)C(=O)N[C@H](C(N)=O)[C@@H](C)O)C(C)C` [TP678] (H-H[Aib]QGTFTSDYSKYLDARAA[Phe(4-CH2NH2)]([AEEA-AEEA-AEEA-γGlu-C18 diacid])DFVQWLLDT-NH2; N-terminus assumed), for which the EC50 at human GLP1R (setting [1]) is < 5 nM; on human GCGR (setting [2]) it was 0.25 nM; on human GCGR (setting [3]) it was < 5 nM. In addition, the “hGCGR/hGLP1R (hTone)” value on human GCGR worked out at 0.3.

By EC50 is commonly meant the concentration at which the effect is half-maximal.

For the origin of these results see patent US11566057B2, “Long-acting co-agonists of the glucagon and GLP-1 receptors” (Merck Sharp & Dohme Corp., priority 2017, dated 2023).
